This note sets out measurements from US4161522A, “Method for blocking allergic responses” (The Regents of the University of California, priority 1978, dated 1979).

Series [1] deals with DBA white mice. Description: Acute toxicity in mice. The settings on record: for survival 24 to 72 hours post-injection: 1.4 ml total i.d./s.c./i.v./i.p. The class given is in vivo. How it is done: Acute toxicity was determined as follows:
DBA white mice (average weight 15 g.) were each injected with 1.4 ml. of a solution of the peptide in phosphate buffered saline, pH 7.4, as follows:
0.1 ml. × 3 intradermally
0.1 ml. × 3 subcutaneously
0.6 ml. intraperitoneally
The peptides and concentrations used were as follows: […]

Series [2] has as its system Wil-2WT human lymphoblastoid tissue culture cell line. Description: Blocking of binding of I125-tagged IgE to Wil-2WT cells in vitro. How it is done:
In this regard, the 8 carbon chain acyl substituted peptide, octanoyl-Asp-Ser-Asp-Pro-Arg, as well as the […] acyl substituted peptide, acetoyl-Asp-Ser-Asp-Pro-Arg, were prepared by the method outlined in Example 10 above. These peptides were tested, in vitro, for their blocking ability with respect to the Wil-2WT human lymphoblastoid tissue culture cell line as follows.
Wil-2WT cells in culture medium were centrifuged at about 2000 RPM. The separated cells were mixed with minimal essential medium (MEM) and recentrifuged at 2000 RPM. The supernatent was decanted off completely and the residual cells were suspended in MEM+3% human serum albumin (HSA). The cell suspension was divided into suitable aliquots in reaction tubes. Blanks and control reaction tubes were also prepared. To various of the cell suspension tubes, were added known amount of Sha Myeloma E; Sha Myeloma E and octanoyl-Asp-Ser-Asp-Pro-Arg; or Sha Myeloma E and acetoyl-Asp-Ser-Asp-Pro-Arg. After mixing and standing at room temperature for approximately one hour, a known quantity of deaggregated IgE, tagged with radioactive iodine (I^125) was added to the tubes. After standing a short time, the capped tubes were mixed by slow inversion over an hour's time. […] The suspension was then counted on a gamma counter in order to determine the amount of tagged IgE bound to the Wil-2WT cells.

Series [3] deals with Prausnitz-Kustner (P-K) reaction. Nature of the series: Prausnitz-Kustner (P-K) reaction blocking assay in human volunteers. The class given is in vivo. Conditions: peptide approx. 6 μg/ml. How it is done: The "blocking" activity of the polypeptides of the invention can be assayed by utilization of the classic Prausnitz-Kustner (P-K) reaction. In this classic method, a known allergic serum i.e., one that contains IgE specific for a known antigen or allergen is injected intradermally into a human volunteer. After waiting a period of time, e.g. 20 or more hours, the injected sites are then challenged with a prick or injection of a solution of an antigen that is specific for the IgE in the injected serum. Within the next 10 to 30 minutes a positive reaction is evidenced by the development of a wheal (and flare) at the injected site. The more extensive the diameter of the wheal the more intensive is the allergic reaction. That is, a more extensive wheal indicates a greater release of histamine into the tissues at the injected site. Conversely, the development of wheals of lesser diameter or the absence of any wheal at all indicates diminished allergic reaction and/or no allergic reaction at all. The P-K reaction as noted above is a classic test and is universally known and utilized by allergists.
All of these assays were performed using a single proven safe P-K donor serum that contains IgE specific for guinea pig allergens.
Peptide solutions were either injected intradermally 1 to 24 hours prior to the P-K serum, or mixed with dilutions of the P-K serum for simultaneous injection. Initial tests were performed using the P-K serum at from 1:4 to 1:200 dilutions. Further studies were run at a fixed P-K dilution of 1:32 while the invention peptide solutions were varied to contain from about 1 mM to […] of the peptide being tested. Injected sites on the volunteers were challenged by prick-puncture of guinea pig BCA 1:40 w/v (purchased from Berkeley Biologicals, Inc.).
Human volunteers were chosen who had serum IgE levels below 100 U/ml. (242 ng/ml.) which levels have been previously shown to assure successful P-K reactivity. […] P-K and skin tests were performed on the back and/or forearm. […]

The subject of series [4] is wheal and flare reaction. Description: Displacement of IgE: direct skin challenge in an individual sensitive to guinea pig antigens. The class given is in vivo, human. The settings on record: single sensitive individual. Here is the method:
It has also been determined that the active polypeptides of the invention appear to have the ability to "displace" IgE from mast cells as well as to prevent the binding of the IgE to the receptors. In a single test, an individual known to have extreme sensitivity to guinea pig antigens, that is a person with a high natural concentration of guinea-pig-antigen-sensitive IgE, was injected with polypeptides in accordance with the invention, and […] reaction to guinea pig antigen was noted.
Specifically, approximately 2 nM each of Asp-Ser-Asp-Pro-Arg and Ala-Asp-Ser-Asp-Pro-Arg were each intradermally injected into 3 marked sites. For comparison, TASME, as well as a control of the buffer diluent alone, was also each injected into 3 marked sites. At one, five and twenty-four hours subsequent to the polypeptide and control injection, one of each peptide and one diluent site were prick-puncture challenged with guinea pig antigen. […] However, at the twenty-four hour challenge, the wheal at the Asp-Ser-Asp-Pro-Arg site was approximately 45% smaller; while at the Ala-Asp-Ser-Asp-Pro-Arg site, the wheal was approximately 23% smaller.

Ends that are not written are not given here. Peptide text beside a SMILES is read from it. * marks the point of attachment. Octanoyl = CCCCCCCC(=O)*

In the case of `C[C@H](N)C(=O)N[C@@H](CC(=O)O)C(=O)N[C@@H](CO)C(=O)N[C@@H](CC(=O)O)C(=O)N1CCC[C@H]1C(=O)N[C@@H](CCCNC(=N)N)C(=O)O` [Ala-Asp-Ser-Asp-Pro-Arg] (H-ADSDPR-OH), in series [1] (5 μg/ml (375 mg/kg), 6 mice), the “survival 24 to 72 hours post-injection” value was “all still living”; the “post-mortem gross and microscopic examination of tissues and organs” value was “no local or systemic toxico-logical abnormalities”.
With `N=C(N)NCCC[C@H](NC(=O)[C@@H]1CCCN1C(=O)[C@H](CC(=O)O)NC(=O)[C@H](CO)NC(=O)[C@@H](N)CC(=O)O)C(=O)O` [Asp-Ser-Asp-Pro-Arg] (H-DSDPR-OH), in series [1] (10 μg/ml (1 mg/kg), 8 mice), the “survival 24 to 72 hours post-injection” value is reported as “all still living”; the “post-mortem gross and microscopic examination of tissues and organs” value is listed as “no local or systemic toxico-logical abnormalities”. In series [1] (13 μg/ml (1.3 mg/kg), 8 mice), the “survival 24 to 72 hours post-injection” value was “all still living”; the “post-mortem gross and microscopic examination of tissues and organs” value was “no local or systemic toxico-logical abnormalities”.
Take `CCCCCCCC(=O)N[C@@H](CC(=O)O)C(=O)N[C@@H](CO)C(=O)N[C@@H](CC(=O)O)C(=O)N1CCC[C@H]1C(=O)N[C@@H](CCCNC(=N)N)C(=O)O` [octanoyl-Asp-Ser-Asp-Pro-Arg] (Octanoyl-DSDPR-OH): the “blocking of the binding of IgE to Wil-2WT cells, highest seen” value in series [2] (as high as, in several procedures) is on record as not above 25%.
Take acetoyl-Asp-Ser-Asp-Pro-Arg (Ac-DSDPR): the “blocking ability on Wil-2WT cells (in words)” value in series [2] was “did not exhibit any blocking ability whatsoever”.
Regarding “tosyl-L-arginine sarcosine methylester [TASME]”, the “inhibition, individual high” value in series [3] (highest of six individuals, 0.1 ml per site) is given as 40%. For the same compound, the “inhibition, individual low” value in series [3] (lowest of six individuals, 0.1 ml per site) stood at 0%. In series [3] (six individuals, 0.1 ml intradermally, 0.05 ml diluted P-K serum containing 0.2 ng IgE, versus control wheal), the “average % inhibition (P-K wheal)” value worked out at 24%. For the same compound, the “inhibition of the wheal and flare reaction” value in series [4] (challenge at one and five hours after intradermal injection of approx. 2 nM) is “No inhibition”. Also, the “wheal smaller than at buffered saline diluent site” value in series [4] (challenge at twenty-four hours after intradermal injection of approx. 2 nM) is given as “No reduction”.
